Measurements published in patent publication US9657013B2, “Inhibitors of hepatitis B virus covalently closed circular DNA formation and their method of use” (priority 2012, dated 2017).

Assays:
HBV cccDNA = assay: cccDNA inhibition assay (Southern blot of Hirt DNA); format: cell-based, hepatitis B virus; settings: for inhibition at 3 µM / inhibition at 10 µM / inhibition at 30 µM / inhibition at 0.3 µM / inhibition at 1 µM: Hepatitis B virus, read-out: cccDNA inhibition % Reduction; for inhibition at 30 µM: Concentration 30 μM; for inhibition at 0.3 µM: Concentration 0.3 μM
Experimental: Cell cultures: HepG2.2.15 cells were maintained in DMEM/F12 medium (Mediatech, Manassas, Va.) supplemented with 10% fetal bovine serum, 100 U/ml penicillin and 100 μg/ml streptomycin, plus 400 μg/ml G418. Tetracycline inducible HBV producer cells, specifically HepDE19 and HepDES19 cells, were maintained in the same way as HepG2.2.15, but with the addition of 1 μg/ml tetracycline (Guo, H., D. Jiang, T. Zhou, A. Cuconati, T. M. Block, and J. T. Guo. 2007). To initiate HBV replication and cccDNA formation in HepDE19 and HepDES19 cells, tetracycline was withdrawn from the culture medium and the cells were cultured for the indicated time period.
Viral nucleic acid analysis: Total cellular RNA was extracted with TRIzol reagent (Invitrogen, Grand Island, N.Y.) by following manufacturer's directions. Ten microgram of total cellular RNA was resolved in 1.5% agarose gel containing 2.2 M formaldehyde and transferred onto Hybond-XL membrane (GE Healthcare, Piscataway, N.J.) in 20×SSC buffer. Intracellular hepadnaviral core DNA and cccDNA (Hirt DNA) were extracted as described previously (Guo, H., D. Jiang, T. Zhou, A. Cuconati, T. M. Block, and J. T. Guo. 2007. Guo, H., D. Jiang, T. Zhou, A. Cuconati, T. M. Block, and J. T. Guo. 2007. Guo, H., R. Mao, T. M. Block, and J. T. Guo. 2010. Guo, H., W. S. Mason, C. E. Aldrich, J. R. Saputelli, D. S. Miller, A. R. Jilbert, and J. E. Newbold. 2005). Half of the DNA samples recovered from one well of a 6-well-plate were resolved by electrophoresis into a 1.2% agarose gel and blotted onto Hybond-XL membrane. Membranes were probed with either an α-^32P-UTP (800 Ci/mmol, Perkin Elmer) labeled hepadnaviral minus (detecting DNA) or plus strand (detecting RNA) specific full-length riboprobe and exposed to a phosphorimager screen (Fuji Film, Tokyo, Japan). Hybridization signals were visualized by Typhoon FLA-7000 (GE Healthcare) and quantified with ImageQuantTL software (GE Healthcare). […]
Identification of compounds that inhibits cccDNA accumulation in HepDES19 cells: Compounds were tested on HepDES19 cells, which have a higher level of cccDNA production than HepDE19 cells (Guo, H., D. Jiang, T. Zhou, A. Cuconati, T. M. Block, and J. T. Guo. 2007). Briefly, after withdrawal of tetracycline, HepDES19 cells were left untreated, or were treated with compound at serial concentrations; tetracycline-free media was changed every other day with fresh compound supplementation. The concentration of DMSO in all experimental groups was normalized at 0.1%. The cells were harvested at day 12, viral RNA (top panel), core DNA (middle panel), and Hirt DNA (DP-rcDNA and cccDNA) (bottom panels) were extracted and analyzed by Northern blot and Southern blot, respectively. Shorter exposure of the Hirt DNA blot was used for the quantitative determination of DP-rcDNA signals. […] The reduction between DP-rcDNA and cccDNA was proportional compared with untreated control. […] Liu, C. P. Hu, and C. Chang. 2005. Guo, H., T. Zhou, D. Jiang, A. Cuconati, G. H. Xiao, T. M. Block, and J. T. Guo. 2007. Zhou, T., H. Guo, J. T. Guo, A. Cuconati, A. Mehta, and T. M. Block. 2006).

[1] = cytotoxicity assay (MTT, CC50); format: cell-based; settings: human, HepDE19 cells
Experimental: (§1) Cell plates were then incubated with compound dilutions and controls as described above, and addition of 3-[4,5-dimethylthiazol-2-yl]-2,5-diphenyltetrazolium bromide (MTT, Sigma-Aldrich) was added to a final concentration of 0.5 mg/ml (Mosmann, T. 1983). Plates were again incubated at 37° C. for 4 hrs, after which 10% SDS/0.01N HCl was added to each well in a volume equal to the medium (100 μl), followed by overnight incubation. Absorbance was read in the Rainbow spectrophotometer (Tecan US Inc., Durham, N.C.) at 570 nm (reference wavelength of 630 nm), and analyzed with XLfit 4.0 as described above.

HepDE19 cells = assay: cytotoxicity assay (MTT, CC50); format: cell-based
Experimental: as §1

| SMILES | inhibition at 3 µM (HBV cccDNA; Concentration 3 μM) | inhibition at 10 µM (HBV cccDNA; Concentration 10 μM) | inhibition at 30 µM (HBV cccDNA) | CC50 [1] | further results |
| --- | --- | --- | --- | --- | --- |
| Cc1nc2cc(NC(=O)CN(c3cc(C(F)(F)F)ccc3Cl)S(=O)(=O)c3ccccc3)ccc2s1 [IHVR-13102] | 30% | 80% | 30% | > 50 µM |  |
| O=C(CN(c1cc(C(F)(F)F)ccc1Cl)S(=O)(=O)c1ccc(C(F)(F)F)cc1Cl)NCc1ccncc1 [CCC-Lu25-50] | 95% |  |  | 30.2 µM |  |
| CN(Cc1ccccc1)S(=O)(=O)c1ccc(C(=O)Nc2ccc3ncsc3c2)cc1 [IHVR-13004] | 50% |  |  | 34.1 µM | inhibition at 0.3 µM (HBV cccDNA): 0%; inhibition at 1 µM (HBV cccDNA; Concentration 1 μM): 0% |
| Cc1nc2ccc(NC(=O)c3ccc(S(=O)(=O)N(C)Cc4ccccc4)cc3)cc2s1 [IHVR-13006] | 50% |  |  | 5.9 µM | inhibition at 0.3 µM (HBV cccDNA): 2%; inhibition at 1 µM (HBV cccDNA; Concentration 1 μM): 50% |
| CC(C)(C)OC(=O)N1CCC(CNC(=O)CN(c2cc(C(F)(F)F)ccc2Cl)S(=O)(=O)c2ccccc2)CC1 [CCC-Lu25-55] | 95% |  |  | 19.1 µM |  |
| O=C(NCc1ccncc1)c1cc2ccccc2n1S(=O)(=O)c1ccccc1 [IHVR 13022-1] | 60% | 65% |  | > 50 µM | inhibition at 1 µM (HBV cccDNA; Concentration 1 μM): 50% |
| O=C(CN(c1cc(C(F)(F)F)ccc1Cl)S(=O)(=O)c1ccccc1)NCc1ccncc1 [IHVR-13106] |  |  |  |  | cccDNA inhibition % Reduction (HBV cccDNA; Concentration 1 μM, 1 µM): 0%; cccDNA inhibition % Reduction (HBV cccDNA; Concentration 3 μM, 3 µM): 70%; cccDNA inhibition % Reduction (HBV cccDNA; Concentration 10 μM, 10 µM): 80%; CC50 (HepDE19 cells): > 50 µM |
| CC(C)(C)CC(=O)NCCNC(=O)CN(c1cc(C(F)(F)F)ccc1F)S(=O)(=O)c1ccccc1 [CCC-Lu25-56] | 70% |  |  | 28.4 µM |  |
| COc1ccc(S(=O)(=O)N(CC(=O)NCc2ccncc2)c2cc(C(F)(F)F)ccc2Cl)cc1 [CCC-Lu25-39] | 95% | 95% | 95% | 49.2 µM |  |
| O=C(CN(c1cc(C(F)(F)F)ccc1Cl)S(=O)(=O)c1ccccc1)NCc1cncnc1 [CCC-Lu25-52] | 80% |  |  | > 50 µM |  |
| Cc1ccc(S(=O)(=O)N(CC(=O)NCc2ccncc2)c2cc(C(F)(F)F)ccc2Cl)cc1 [CCC-Lu25-38] | 95% | 95% | 95% | > 50 µM |  |
| O=C(CN(c1cc(C(F)(F)F)ccc1Cl)S(=O)(=O)c1ccc(F)cc1)NCc1ccncc1 [CCC-Lu25-20] | 20% | 60% | 70% | > 50 µM |  |
| O=C(CN(c1cc(Cl)ccc1F)S(=O)(=O)c1ccccc1)NCc1ccncc1 [CCC-Lu25-41] | 10% | 30% | 40% | > 50 µM |  |
| O=C(NCc1ccncc1)C1CCCN1S(=O)(=O)c1ccccc1 (stereo not drawn) [IHVR-13108] | 70% | 50% |  | > 50 µM | inhibition at 1 µM (HBV cccDNA; Concentration 1 μM): 10% |
| Cc1cc2cc(NC(=O)c3ccc(S(=O)(=O)N(C)Cc4ccccc4)cc3)ccc2[nH]1 [IHVR-13003-1] | 3% | 5% | 10% | > 50 µM |  |
| O=C(CN(c1cc(C(F)(F)F)ccc1Cl)S(=O)(=O)c1ccc(Cl)cc1)NCc1ccncc1 [CCC-Lu25-32] | 95% | 95% | 95% | > 50 µM |  |
| O=C(CN(c1cc(C(F)(F)F)ccc1Cl)S(=O)(=O)c1ccccc1)N1CCc2cnccc2C1 [CCC-Lu25-54] | 50% |  |  | > 50 µM |  |
| O=C(CN(c1cc(C(F)(F)F)ccc1Cl)S(=O)(=O)c1ccccc1)NCc1ccncc1 [CCC-Lu25-22] |  | 70% | 70% | > 50 µM | cccDNA inhibition % Reduction (HBV cccDNA; Concentration 3 μM, 3 µM): 40% |
| C[N+]1(C)CCC(CNC(=O)CN(c2cc(C(F)(F)F)ccc2Cl)S(=O)(=O)c2ccccc2)CC1 [CCC-Lu25-61-2] | 30% |  |  | > 50 µM |  |
| O=C(CN(c1cc(C(F)(F)F)ccc1Cl)S(=O)(=O)c1ccc(C(F)(F)F)cc1)NCc1ccncc1 [CCC-Lu25-42] | 90% | 95% |  | > 50 µM | inhibition at 1 µM (HBV cccDNA; Concentration 1 μM): 20% |
| O=C(CN(c1cc(C(F)(F)F)ccc1Cl)S(=O)(=O)c1ccccc1)NCc1ccncn1 [CCC-Lu25-53] | 70% |  |  | > 50 µM |  |
| O=C(CN(c1cc(C(F)(F)F)ccc1Br)S(=O)(=O)c1ccccc1)NCc1ccncc1 [CCC-1002-2] | 30% | 90% |  | > 50 µM | inhibition at 1 µM (HBV cccDNA; Concentration 1 μM): 30% |
| CN(Cc1ccccc1)S(=O)(=O)c1ccc(C(=O)NCc2ccncc2)cc1 [IHVR-13009] | 15% | 15% | 30% | > 50 µM |  |
| CN1CCN(c2ccc(CNC(=O)CN(c3cc(C(F)(F)F)ccc3Cl)S(=O)(=O)c3ccccc3)cc2)CC1 [IHVR-29022] | 30% |  |  | 49.5 µM |  |
| O=C(CN(c1cc(C(F)(F)F)ccc1F)S(=O)(=O)c1ccccc1)NCc1ccncc1 [CCC-1022-3] | 50% | 75% |  | > 50 µM | inhibition at 1 µM (HBV cccDNA; Concentration 1 μM): 20% |
| CN1CCN(c2cccc(CNC(=O)CN(c3cc(C(F)(F)F)ccc3Cl)S(=O)(=O)c3ccccc3)c2)CC1 [IHVR-29023] | 30% |  |  | 38.7 µM |  |
| O=C(CN(c1cc(C(F)(F)F)ccc1Cl)S(=O)(=O)c1ccccc1)NCc1cccnc1 [CCC-Lu25-51] | 80% |  |  | > 50 µM |  |
| CN1CCC(CNC(=O)CN(c2cc(C(F)(F)F)ccc2Cl)S(=O)(=O)c2ccccc2)CC1 [CCC-Lu25-61-1] | 30% |  |  | > 50 µM |  |
